Laboratory results as given in PubChem BioAssay (NCI).
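Following 48 hours of exposure in 96-well plates, responses at five concentrations were used to interpolate endpoints linearly. TGI denotes the concentration required for complete inhibition of growth.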

What was measured:
Experiment in all cases: NCI anticancer screen, dose series, 48 h
HOP-62 NSCLC = tested on: HOP-62 NSCLC
SK-OV-3 ovarian = tested on: SK-OV-3 ovarian
KM12 colon = tested on: KM12 colon
K-562 leukemia = tested on: K-562 leukemia
HT29 colon = tested on: HT29 colon
MALME-3M melanoma = tested on: MALME-3M melanoma
786-0 renal = tested on: 786-0 renal
UACC-257 melanoma = tested on: UACC-257 melanoma
CAKI-1 renal = tested on: CAKI-1 renal
IGROV1 ovarian = tested on: IGROV1 ovarian
LOX IMVI melanoma = tested on: LOX IMVI melanoma
NCI-H23 lung = tested on: NCI-H23 lung
SK-MEL-2 melanoma = tested on: SK-MEL-2 melanoma
HCC-2998 colon = tested on: HCC-2998 colon
EKVX NSCLC = tested on: EKVX NSCLC
OVCAR-3 ovarian = tested on: OVCAR-3 ovarian
UO-31 renal = tested on: UO-31 renal
UACC-62 melanoma = tested on: UACC-62 melanoma
NCI-H522 lung = tested on: NCI-H522 lung
PC-3 prostate = tested on: PC-3 prostate
MDA-MB-435 = tested on: MDA-MB-435
SW-620 colon = tested on: SW-620 colon
HCT-116 colon = tested on: HCT-116 colon
DU-145 prostate = tested on: DU-145 prostate
MOLT-4 leukemia = tested on: MOLT-4 leukemia
NCI-H460 lung = tested on: NCI-H460 lung
MCF7 breast = tested on: MCF7 breast
NCI/ADR-RES ovarian = tested on: NCI/ADR-RES ovarian
RPMI-8226 leukemia = tested on: RPMI-8226 leukemia
SK-MEL-5 melanoma = tested on: SK-MEL-5 melanoma
SN12C renal = tested on: SN12C renal
SF-539 CNS = tested on: SF-539 CNS
SF-268 CNS = tested on: SF-268 CNS
HOP-92 NSCLC = tested on: HOP-92 NSCLC
SK-MEL-28 melanoma = tested on: SK-MEL-28 melanoma
MDA-N = tested on: MDA-N
TK-10 renal = tested on: TK-10 renal
HS 578T breast = tested on: HS 578T breast
OVCAR-4 ovarian = tested on: OVCAR-4 ovarian
CCRF-CEM leukemia = tested on: CCRF-CEM leukemia
OVCAR-8 ovarian = tested on: OVCAR-8 ovarian
COLO 205 colon = tested on: COLO 205 colon
M14 melanoma = tested on: M14 melanoma
A498 renal = tested on: A498 renal
SNB-75 CNS = tested on: SNB-75 CNS
NCI-H226 lung = tested on: NCI-H226 lung
SNB-19 CNS = tested on: SNB-19 CNS
HCT-15 colon = tested on: HCT-15 colon
RXF 393 renal = tested on: RXF 393 renal
U251 CNS = tested on: U251 CNS
T-47D breast = tested on: T-47D breast
SF-295 CNS = tested on: SF-295 CNS
OVCAR-5 ovarian = tested on: OVCAR-5 ovarian
BT-549 breast = tested on: BT-549 breast
SR leukemia = tested on: SR leukemia
MDA-MB-231 breast = tested on: MDA-MB-231 breast
A549 NSCLC = tested on: A549 NSCLC
ACHN renal = tested on: ACHN renal
HL-60(TB) leukemia = tested on: HL-60(TB) leukemia

## CCCN(CCc1ccc(-c2ccccc2)cc1)CCc1ccc2n[nH]nc2c1
HOP-62 NSCLC
  TGI: 26.3 µM
SK-OV-3 ovarian
  TGI: 28.5 µM
KM12 colon
  TGI: 34.1 µM
K-562 leukemia
  TGI: 18.4 µM
HT29 colon
  TGI: 23.6 µM
MALME-3M melanoma
  TGI: 22.8 µM
786-0 renal
  TGI: 24.9 µM
UACC-257 melanoma
  TGI: 17.1 µM
CAKI-1 renal
  TGI: 25.5 µM
IGROV1 ovarian
  TGI: 22.1 µM
LOX IMVI melanoma
  TGI: 28.6 µM
NCI-H23 lung
  TGI: 25.8 µM
SK-MEL-2 melanoma
  TGI: 33.4 µM
HCC-2998 colon
  TGI: 19.7 µM
EKVX NSCLC
  TGI: 27.5 µM
OVCAR-3 ovarian
  TGI: 25.8 µM
UO-31 renal
  TGI: 22.4 µM
UACC-62 melanoma
  TGI: 24 µM
NCI-H522 lung
  TGI: 25.9 µM
PC-3 prostate
  TGI: 22.1 µM
MDA-MB-435
  TGI: 28.6 µM
SW-620 colon
  TGI: 36.3 µM
HCT-116 colon
  TGI: 18.1 µM
DU-145 prostate
  TGI: 23.9 µM
MOLT-4 leukemia
  TGI: 19.1 µM
NCI-H460 lung
  TGI: 22.1 µM
MCF7 breast
  TGI: > 51.2 µM
NCI/ADR-RES ovarian
  TGI: 47 µM
RPMI-8226 leukemia
  TGI: 28.1 µM
SK-MEL-5 melanoma
  TGI: 15.8 µM
SN12C renal
  TGI: 27.4 µM
SF-539 CNS
  TGI: 24 µM
SF-268 CNS
  TGI: 48.7 µM
HOP-92 NSCLC
  TGI: 15.2 µM
SK-MEL-28 melanoma
  TGI: 13.6 µM
MDA-N
  TGI: 19.1 µM
TK-10 renal
  TGI: 25.7 µM
HS 578T breast
  TGI: 51.8 µM
OVCAR-4 ovarian
  TGI: 33.3 µM
CCRF-CEM leukemia
  TGI: 19.4 µM
OVCAR-8 ovarian
  TGI: 36.3 µM
COLO 205 colon
  TGI: 9.07 µM
M14 melanoma
  TGI: 25.4 µM
A498 renal
  TGI: 36.2 µM
SNB-75 CNS
  TGI: 30.6 µM
NCI-H226 lung
  TGI: 36.7 µM
SNB-19 CNS
  TGI: 26.8 µM
HCT-15 colon
  TGI: 21.4 µM
RXF 393 renal
  TGI: 33.1 µM
U251 CNS
  TGI: 37.6 µM
T-47D breast
  TGI: 19.2 µM
SF-295 CNS
  TGI: 27.5 µM
OVCAR-5 ovarian
  TGI: 33.6 µM
BT-549 breast
  TGI: 22.2 µM
SR leukemia
  TGI: 17.9 µM
MDA-MB-231 breast
  TGI: 28.1 µM
A549 NSCLC
  TGI: 30 µM
ACHN renal
  TGI: 25.4 µM

## CC(=O)OC1=NN=C2COC(c3ccccc3OC(C)=O)=NN2C1
HOP-62 NSCLC
  TGI: > 50 µM
SK-OV-3 ovarian
  TGI: > 50 µM
KM12 colon
  TGI: > 50 µM
K-562 leukemia
  TGI: > 50 µM
HT29 colon
  TGI: > 50 µM
MALME-3M melanoma
  TGI: > 50 µM
786-0 renal
  TGI: > 50 µM
UACC-257 melanoma
  TGI: > 50 µM
CAKI-1 renal
  TGI: > 50 µM
IGROV1 ovarian
  TGI: > 50 µM
LOX IMVI melanoma
  TGI: > 50 µM
NCI-H23 lung
  TGI: > 50 µM
SK-MEL-2 melanoma
  TGI: > 50 µM
HCC-2998 colon
  TGI: > 50 µM
EKVX NSCLC
  TGI: > 50 µM
OVCAR-3 ovarian
  TGI: > 50 µM
UO-31 renal
  TGI: > 50 µM
UACC-62 melanoma
  TGI: > 50 µM
NCI-H522 lung
  TGI: > 50 µM
PC-3 prostate
  TGI: > 50 µM
MDA-MB-435
  TGI: > 50 µM
SW-620 colon
  TGI: > 50 µM
HCT-116 colon
  TGI: > 50 µM
DU-145 prostate
  TGI: > 50 µM
NCI-H460 lung
  TGI: > 50 µM
MCF7 breast
  TGI: > 50 µM
NCI/ADR-RES ovarian
  TGI: > 50 µM
RPMI-8226 leukemia
  TGI: > 50 µM
SK-MEL-5 melanoma
  TGI: 18.1 µM
SN12C renal
  TGI: > 50 µM
SF-539 CNS
  TGI: > 50 µM
SF-268 CNS
  TGI: > 50 µM
HOP-92 NSCLC
  TGI: > 50 µM
SK-MEL-28 melanoma
  TGI: > 50 µM
MDA-N
  TGI: > 50 µM
TK-10 renal
  TGI: > 50 µM
HS 578T breast
  TGI: > 50 µM
OVCAR-4 ovarian
  TGI: > 50 µM
CCRF-CEM leukemia
  TGI: > 50 µM
COLO 205 colon
  TGI: > 50 µM
M14 melanoma
  TGI: > 50 µM
HL-60(TB) leukemia
  TGI: > 50 µM
SNB-75 CNS
  TGI: > 50 µM
SNB-19 CNS
  TGI: > 50 µM
HCT-15 colon
  TGI: > 50 µM
RXF 393 renal
  TGI: > 50 µM
U251 CNS
  TGI: > 50 µM
T-47D breast
  TGI: > 50 µM
SF-295 CNS
  TGI: > 50 µM
OVCAR-5 ovarian
  TGI: > 50 µM
BT-549 breast
  TGI: > 50 µM
SR leukemia
  TGI: > 50 µM
MDA-MB-231 breast
  TGI: > 50 µM
A549 NSCLC
  TGI: > 50 µM
ACHN renal
  TGI: > 50 µM
